Assay results as given in patent US10058587B2, “Peptide composition for cancer treatment by inhibiting TRPV6 calcium channel activity” (priority 2008, dated 2018).
Where no end group is shown, it is not given here.

Key:
human TRPV6b = target: T1, human TRPV6b (Homo sapiens, UniProt Q9H1D0); assay: Whole-cell patch clamp of calcium store operated current (ISOC) through TRPV6 in transfected LnCaP cells; format: cell-based
T1 construct: expressed in transfected cells; host or cells: LnCaP (ATCC CRL-1740), human lymph node prostate cancer cells
T1 sequence (Q9H1D0 41-765 limits assumed): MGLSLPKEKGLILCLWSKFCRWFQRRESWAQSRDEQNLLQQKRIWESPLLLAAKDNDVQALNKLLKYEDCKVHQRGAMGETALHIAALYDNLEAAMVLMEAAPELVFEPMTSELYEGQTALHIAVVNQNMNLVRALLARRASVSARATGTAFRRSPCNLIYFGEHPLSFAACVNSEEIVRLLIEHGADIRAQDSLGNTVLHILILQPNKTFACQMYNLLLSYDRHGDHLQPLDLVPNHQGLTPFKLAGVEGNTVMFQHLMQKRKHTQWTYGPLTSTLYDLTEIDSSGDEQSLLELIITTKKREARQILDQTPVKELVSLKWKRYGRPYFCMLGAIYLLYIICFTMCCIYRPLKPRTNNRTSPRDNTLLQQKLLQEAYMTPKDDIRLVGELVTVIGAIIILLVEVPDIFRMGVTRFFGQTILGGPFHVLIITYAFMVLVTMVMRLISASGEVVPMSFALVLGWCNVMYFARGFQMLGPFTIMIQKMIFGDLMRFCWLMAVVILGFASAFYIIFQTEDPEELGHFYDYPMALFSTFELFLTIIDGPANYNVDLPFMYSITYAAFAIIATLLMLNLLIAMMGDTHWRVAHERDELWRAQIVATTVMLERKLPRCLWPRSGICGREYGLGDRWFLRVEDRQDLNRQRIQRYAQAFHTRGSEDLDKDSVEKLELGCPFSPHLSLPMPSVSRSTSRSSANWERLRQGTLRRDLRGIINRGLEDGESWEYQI
Description: An expression vector (pCAGS-IRES-hTRPV6b) (Bodding et al. 2003) containing the nucleotide code for human TRPV6b was transfected into and expressed by human lymph node prostate cancer (LnCaP, ATCC CRL-1740). Patch clamping with whole-cell current acquisition was used to measure the calcium current through this channel. Cells were treated and calcium store operated current (ISOC) was measured with either SorC13 (n=90) or SorC27 (n=30) in a closed-circuit perfusion for 3 min at each of cumulative concentrations of 0 (baseline), 100 nM, 500 nM 1 uM, 30 uM and 100 uM. Washout perfusion was done at 2 mL/min for 3 min. […] Further, both C-peptides are very strong inhibitors of calcium current through the TRPV6 channel with inhibition constants in the 100 nM range.

[1] = system: T47D breast cancer xenografts; assay: T-47D breast cancer xenograft, SorC13 with Paclitaxel (Example 27); format: in vivo, NOD/SCID mice; conditions: for % ΔT/ΔC (tumor volume normalized to control) / Mean tumour volume: alone or with SorC13; for Mean tumour volume: after 12-day rest post-treatment; for Mean tumor volume: day 12 of treatment, alone or with SorC13 300 mg/kg
Description: Tumor volumes (V) were calculated by caliper measurement using standard measurements of the width (W), length (L) and thickness (T) of tumors. Animals were randomized into treatment groups so that the median tumor volumes of each group were similar at the start of dosing. Percentage ΔT/ΔC values, as a measure of efficacy, were determined where ΔC refers to change in volume of control or untreated tumor, and ΔT refers to change in volume of treated tumor.
Animals were intraperitoneally (i.p.) injected with the vehicular control, or the low, medium or high doses of CAT or CAT and SorC13. Mice received low medium or high doses of CAT or CAT and SorC13 by i.p. injection every day for 12 days or CAT injections as set out in Table 10. Paclitaxel was injected first, followed by carboplatin 30 minutes later and then SorC13. The tumor volume and body weights were measured every day. As well, general health of the animals was monitored every day.
The human […] breast cancer cell line T-47D (ATCC #HTB-133), was cultured in growth media prepared with ATCC complete growth medium. The base medium for the T-47D cell line is ATCC-formulated RPMI-1640 Medium. The complete growth medium is supplemented with 0.2 Units/ml bovine insulin and fetal bovine serum to a final concentration of 10% (v/v). Cells were cultured at 37° C. in an atmosphere of 95% air and 5% carbon dioxide with sub-culturing done according to ATCC guidelines.
The cell preparation, formulation, implantation, measurement and treatment procedures were otherwise as described in Example 26 and Table 10 but with Paclitaxel at low (6 mg/kg), medium (10 mg/kg) and high (16 mg/kg) doses.

[2] = Tissue distribution of Cy5.5-labeled peptides by optical imaging; format: in vivo, CD1 mice; conditions: four hours after i.v. injection of 100 ug
Excerpt: SorC13 and SorC27 were labeled with the near-infrared probe, Cy5.5. SorC13 was labeled at lysine-1 and lysine-8 with the infrared fluorescent probe cy5.5 through reaction with Cy5.5 NHS ester-activated process. SorC27 was labeled at the single cysteine thiol with Cy5.5 maleamide-activated reaction. The labeled peptides were purified with a combination of size exclusion chromatography and HPLC. The label, Cy5.5, fluoresces in the infra-red region after excitation with a scanning laser. The low energy laser is able to penetrate the animal to about 1 cm and, thus, by scanning prone and supine positions, the presence of the tagged peptides can be quantified in three dimensions.
Cy5.5-labeled peptides were intravenously injected into CD1 mice (4 for each compound) at 100 ug per animal in 100 uL, and animals were imaged live using an optical imaging system, Optix eXplorer (GE Healthcare Systems) at different time points (30 min, 90 min, 4 h). […] The bio-distribution of the labeled peptides in different organs and tissues were visualized and relatively quantified by optical imaging analysis. This protocol allows for visualization of the location of the labeled peptides and how the location changes over time. […] Nodes that accumulated the labeled peptides are indicated by line 1 (superfacial cervical nodes), line 4 (axillary nodes), line 5 (brachial nodes), line 8 (mesenteric nodes) and line 9 (inguinal nodes). FIGS. 8, 9 and 10 show the amounts of labeled peptides in various organs ex vivo.

Molecule: C#CCN1C(C)=C(C(=O)OC)C(c2cccc([N+](=O)[O-])c2)C(C(=O)OCC)=C1C (stereo not drawn) [MRS-1845, N-propargylnitrendipene, reference compound]
- inhibition of the calcium current (human TRPV6b; positive control at 5 uM): demonstrated inhibition of the calcium current

Molecule: CC(=O)O[C@H]1C(=O)[C@@]2(C)[C@H]([C@H](OC(=O)c3ccccc3)[C@]3(O)C[C@H](OC(=O)[C@H](O)[C@@H](NC(=O)c4ccccc4)c4ccccc4)C(C)=C1C3(C)C)[C@]1(OC(C)=O)CO[C@@H]1C[C@@H]2O [Paclitaxel]
- % ΔT/ΔC (tumor volume normalized to control) ([1]; Day 6, high Paclitaxel (16 mg/kg)): 17.8%
- % ΔT/ΔC (tumor volume normalized to control) ([1]; Day 6, low Paclitaxel (6 mg/kg)): 26.0%
- % ΔT/ΔC (tumor volume normalized to control) ([1]; Day 6, medium Paclitaxel (10 mg/kg)): −4.0%
- % ΔT/ΔC (tumor volume normalized to control) ([1]; Day 12, high Paclitaxel (16 mg/kg)): −96.4%
- % ΔT/ΔC (tumor volume normalized to control) ([1]; Day 12, low Paclitaxel (6 mg/kg)): 16.3%
- % ΔT/ΔC (tumor volume normalized to control) ([1]; Day 12, medium Paclitaxel (10 mg/kg)): −45.9%
- % ΔT/ΔC (tumor volume normalized to control) ([1]; Day 18 (rest period), high Paclitaxel): −112.4%
- % ΔT/ΔC (tumor volume normalized to control) ([1]; Day 18 (rest period), low Paclitaxel): 46.0%
- % ΔT/ΔC (tumor volume normalized to control) ([1]; Day 18 (rest period), medium Paclitaxel): −56.9%
- % ΔT/ΔC (tumor volume normalized to control) ([1]; Day 24 (rest period), high Paclitaxel): −88.4%
- % ΔT/ΔC (tumor volume normalized to control) ([1]; Day 24 (rest period), low Paclitaxel): 33.3%
- % ΔT/ΔC (tumor volume normalized to control) ([1]; Day 24 (rest period), medium Paclitaxel): −33.2%
- Mean tumour volume ([1]; high Paclitaxel (16 mg/kg)): 20.24 mm^3
- Mean tumour volume ([1]; low Paclitaxel (6 mg/kg)): 52.08 mm^3
- Mean tumour volume ([1]; medium Paclitaxel (10 mg/kg)): 35.52 mm^3
- Mean tumor volume ([1]; high Paclitaxel (16 mg/kg)): 26.47 mm^3
- Mean tumor volume ([1]; low Paclitaxel (6 mg/kg)): 46.37 mm^3
- Mean tumor volume ([1]; medium Paclitaxel (10 mg/kg)): 36.23 mm^3

Molecule: HPSKVDLPR [SorC9, HPSKVDLPR]
- Kd (human TRPV6b): ~90 nM

Molecule: SorC27-Cy5.5: SorC27 labeled at the single cysteine thiol with Cy5.5 (EGKLSSNDTEGGLC(Cy5.5)KEFLHPSKVDLPR)
- accumulation at lymph nodes (superfacial cervical, axillary, branchial, mesenteric, inguinal) [2]: Significant accumulation
